Measurements: PubChem BioAssay (NCI)
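Method: 48-hour compound exposure of cells in 96-well plates, five concentrations, linear interpolation of endpoints. GI50 marks 50% less growth. TGI denotes the concentration required for complete inhibition of growth.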

What was measured:
Assay in all cases: NCI-60 cell line screen, 48 h
HCT-116 colon = system: HCT-116 colon
SNB-19 CNS = system: SNB-19 CNS
SK-OV-3 ovarian = system: SK-OV-3 ovarian
NCI/ADR-RES ovarian = system: NCI/ADR-RES ovarian
OVCAR-3 ovarian = system: OVCAR-3 ovarian
SF-295 CNS = system: SF-295 CNS
SW-620 colon = system: SW-620 colon
SK-MEL-28 melanoma = system: SK-MEL-28 melanoma
MOLT-4 leukemia = system: MOLT-4 leukemia
EKVX NSCLC = system: EKVX NSCLC

SMILES | GI50 (HCT-116 colon) [µM] | TGI (HCT-116 colon) [µM] | GI50 (SNB-19 CNS) [µM] | TGI (SNB-19 CNS) [µM] | GI50 (SK-OV-3 ovarian) [µM] | TGI (SK-OV-3 ovarian) [µM] | GI50 (NCI/ADR-RES ovarian) [µM] | TGI (NCI/ADR-RES ovarian) [µM] | GI50 (OVCAR-3 ovarian) [µM] | TGI (OVCAR-3 ovarian) [µM] | GI50 (SF-295 CNS) [µM] | TGI (SF-295 CNS) [µM] | GI50 (SW-620 colon) [µM] | TGI (SW-620 colon) [µM] | GI50 (SK-MEL-28 melanoma) [µM] | TGI (SK-MEL-28 melanoma) [µM] | GI50 (MOLT-4 leukemia) [µM] | TGI (MOLT-4 leukemia) [µM] | GI50 (EKVX NSCLC) [µM] | TGI (EKVX NSCLC) [µM]
COc1cccc2c1nc(C(F)F)n2-c1nc(-c2ccc(NS(=O)(=O)CCN(C)C)cc2)nc(N2CCOCC2)n1 | 0.456 | 2.98 | 1.28 | > 100 | 0.0396 | 0.214 | 0.434 | 33.6 | 0.105 | 3.13 | 0.0875 | 1.44 | 0.341 | 6.78 | 0.0774 | 2.5 | 0.123 | 3.71 | 0.0712 | 1.7
C=CC1(C)CCC2C(=CCC3C2(C)CC(O)C(O)C3(C)COC2OC(CO)C(O)C(O)C2O)C1 (configuration not stated) | – | > 100 | – | > 100 | – | > 100 | – | > 100 | – | – | – | > 100 | – | > 100 | – | > 100 | – | > 100 | – | > 100
O=C(/C=C\c1ccc(O)c(O)c1)c1ccccc1O | 11.9 | 24.9 | 17.4 | 91.8 | 17.7 | 71.6 | 10.8 | 36.1 | 8.86 | 24.2 | 17.7 | 54.4 | 11.3 | 26.4 | 15.1 | 42.7 | 1.89 | 97.5 | 14.4 | > 100
CC(C)=CCc1cc2c(cc1O)C1=C(C(=O)C3=C(NCCS3(=O)=O)C1=O)C(C=C(C)C)O2 (configuration not stated) | 5.84 | > 16.7 | 3.81 | 11.9 | > 16.7 | > 16.7 | > 16.7 | > 16.7 | 2.13 | 10.1 | > 16.7 | > 16.7 | 5 | > 16.7 | 3.81 | 9.84 | 3.16 | 12.2 | 6.24 | > 16.7
CS(=O)(=O)OCCN(CCOS(C)(=O)=O)c1ccc(C=Nc2ccc(-c3csc(COc4ccccc4)n3)cc2)cc1 | – | 27.6 | – | 32.6 | – | 12.2 | – | 49.7 | – | 15.3 | – | 17.8 | – | 52 | – | 25.5 | – | 15.6 | – | 16.5
NS(=O)(=O)c1ccc(N(/C=C/C(=O)C(F)(F)F)CC(=O)c2ccc(F)cc2)cc1 | 22.5 | > 100 | 53.8 | > 100 | 63.3 | > 100 | 18.2 | 41.6 | 19.7 | 47.3 | 26.4 | 85.7 | 21.5 | 46.6 | 43.7 | > 100 | 20 | 72.5 | 29.7 | 87.2
Cc1c2cnccc2c(C)c2c1c1ccccc1n2CCOC(=O)c1ccccc1 | – | 28.2 | – | 40.2 | – | 25.5 | – | 33 | – | 28.8 | – | 33 | – | 53.7 | – | 47.2 | – | 25.4 | – | 47.9
O=P1(NCCCl)OCCCN1CCCl (configuration not stated) | – | 440 | – | 418 | – | 424 | – | 450 | – | 422 | – | 429 | – | 401 | – | 439 | – | 391 | – | 447
CCCCn1c(=O)[nH]c(N)c([C@@H]2c3c([nH]c(=O)n(CCCC)c3=O)Oc3ccc4ccccc4c32)c1=O | 1.53 | 3.02 | 1.72 | 3.36 | 2.74 | 11.9 | 2.82 | 8.84 | 1.63 | 2.98 | 5.83 | 19.2 | 0.37 | 1.18 | 2.52 | 6.23 | 0.35 | 1.74 | 4.64 | 18.8
C/C(=C\C(=O)O[C@H]1[C@@H]2[C@H](C)CC[C@H]2[C@]2(C)O[C@@]1(C1CCCCC1)C[C@H]2OC(=O)CO)c1ccccc1 | 6.18 | 12 | 7.41 | 13.1 | 7.15 | 13.2 | 0.348 | 7.49 | 7.69 | 13.9 | 6.08 | 11.7 | 6.78 | 13.3 | 6.78 | 12.6 | 6.42 | 13.6 | 6.46 | 12.5
COC(=O)[C@@H](C)C[C@H](Cc1ccccc1)NC(=O)c1nc([C@@H](C[C@H](C(C)C)N(C)C(=O)[C@@H](NC(=O)[C@H]2C[C@H](O)CCN2C)C(C)C)OC(C)=O)sc1C(C)C | 0.004 | 3.88 | 0.00424 | > 11.1 | 0.00646 | > 11.1 | 2.29 | > 11.1 | 0.00148 | – | 0.0164 | > 11.1 | 0.00533 | > 11.1 | 0.0191 | > 11.1 | 0.0117 | > 11.1 | 0.161 | > 11.1
CCC(=C(c1ccc(OCCN2CCCCC2)cc1)c1ccc(OCCN2CCCCC2)cc1)c1ccc(Cl)cc1 | 1.56 | > 16.7 | 5.91 | > 16.7 | > 16.7 | > 16.7 | > 16.7 | > 16.7 | 11.2 | > 16.7 | 6.53 | > 16.7 | 4.1 | > 16.7 | 2.8 | 5.26 | 2.77 | > 16.7 | > 16.7 | > 16.7
COc1cc2c(c3oc(-c4ccc(O)cc4)c(O)c(=O)c13)CCC(C)(C)O2 | 0.172 | 0.372 | 0.16 | > 23.4 | 0.401 | 5.4 | 0.309 | 0.829 | 0.431 | 27.4 | 0.0426 | 0.194 | 0.0872 | 0.31 | 0.21 | 0.93 | 0.191 | – | 0.308 | –
CC(=O)/C(=C\c1ccc(Cl)cc1)c1ccccc1 | – | – | 0.344 | > 100 | 0.0942 | > 100 | 2.07 | > 100 | 0.0383 | 0.229 | 0.054 | > 100 | 0.0445 | > 64.6 | 2.05 | > 100 | 0.124 | > 100 | 1.82 | > 100
Cn1cc(C2NC(=O)c3ccccc3N2)c2ccccc21 (configuration not stated) | – | > 20.4 | – | > 91 | – | 40.3 | – | 2.49 | – | 2.03 | – | – | – | > 100 | – | > 100 | – | – | – | > 44.1
